Like-named read-outs stand apart in the source and are kept apart here. Values belong to the compound of their own block, whether it stands above or below them.
Tests used:
uricase = settings: approximation; competitive inhibitor; read-out: inhibitor constant (Ki); cited from earlier work
[1] = test system: NAD-isocitric dehydrogenase; parameters: key: inhibitory or negative effectors are indicated by (-); stimulatory or positive effectors are indicated by (+); settings: yeast; cited from earlier work
[2] = test system: fructose-1,6-diphosphatase; parameters: key: inhibitory or negative effectors are indicated by (-); stimulatory or positive effectors are indicated by (+); settings: frog muscle and rat liver; cited from earlier work
phosphorylase b = test system: phosphorylase b; parameters: key: inhibitory or negative effectors are indicated by (-); stimulatory or positive effectors are indicated by (+); settings: rabbit muscle; cited from earlier work
L-threonine deaminase = test system: L-threonine deaminase; parameters: key: inhibitory or negative effectors are indicated by (-); stimulatory or positive effectors are indicated by (+); settings: C. tetanomorphum; cited from earlier work
glutamate dehydrogenase = test system: glutamate dehydrogenase; parameters: key: inhibitory or negative effectors are indicated by (-); stimulatory or positive effectors are indicated by (+); settings: beef liver; cited from earlier work
[3] = test system: aspartate transcarbamylase; parameters: key: inhibitory or negative effectors are indicated by (-); stimulatory or positive effectors are indicated by (+); settings: E. coli; cited from earlier work
phosphofructokinase = settings: guinea pig heart; cited from earlier work
carbonic anhydrase [4] = experiment: Competitive binding assay for dinitrophenyl (DNP) derivatives; carbonic anhydrase esterase readout (Example 5); format: biochemical, human; settings: for effect on the carbonic anhydrase reaction (in words): Table 4; for effect of antibody to DNP on inhibition (in words): presence of antibody to DNP
Experimental: (§1) Further dilutions were with water.
as §1
(4) Antibody to Dinitrophenyl (DNP) Reagent - Antisera raised against DNP was chromatographed at 4° C. on a 5 × 70 cm column of Sephadex G-200 (Pharmacia AB, Uppsala, Sweden) with 0.1 M Tris-HCl buffer, pH 8.2, containing 1 M sodium chloride.

carbonic anhydrase [5] = experiment: Esterase activities of carbonic anhydrase as a function of acetazolamide concentration (Example 2); format: biochemical, human; settings: for Hydrolysis Rate: pH 7.4, enzyme 0.013 IU
[6] = test system: biosynthetic L-threonine deaminase; parameters: key: inhibitory or negative effectors are indicated by (-); stimulatory or positive effectors are indicated by (+); settings: E. coli K12 and yeast; cited from earlier work
homoserine dehydrogenase [7] = test system: homoserine dehydrogenase; parameters: key: inhibitory or negative effectors are indicated by (-); stimulatory or positive effectors are indicated by (+); settings: R. rubrum; cited from earlier work
lysine aspartokinase = test system: lysine aspartokinase; parameters: key: inhibitory or negative effectors are indicated by (-); stimulatory or positive effectors are indicated by (+); settings: E. coli; cited from earlier work
threonine aspartokinase = test system: threonine aspartokinase; parameters: key: inhibitory or negative effectors are indicated by (-); stimulatory or positive effectors are indicated by (+); settings: E. coli; cited from earlier work
homoserine dehydrogenase [8] = test system: homoserine dehydrogenase; parameters: key: inhibitory or negative effectors are indicated by (-); stimulatory or positive effectors are indicated by (+); settings: E. coli; cited from earlier work
acetolactate synthetase = test system: acetolactate synthetase; parameters: key: inhibitory or negative effectors are indicated by (-); stimulatory or positive effectors are indicated by (+); settings: E. coli; cited from earlier work
acetylcholinesterase = settings: cited from earlier work; for inhibition of acetylcholinesterase (in words): effective analogs of listed inhibitors
carbonic anhydrase [9] = experiment: Direct binding assay for avidin; competitive binding assay for biotin; carbonic anhydrase esterase readout (Example 4); format: biochemical, human
From the text: as §1
The results of reaction mixtures 2 through 9 are presented in graphical form in FIG. 2 of the drawing.

[10] = test system: nicotinamide adenine dinucleotide (NAD)-isocitric dehydrogenase; parameters: key: inhibitory or negative effectors are indicated by (-); stimulatory or positive effectors are indicated by (+); settings: N. crassa; cited from earlier work
[11] = test system: UDP-N-acetyl-glucosamine-2-epimerase; parameters: key: inhibitory or negative effectors are indicated by (-); stimulatory or positive effectors are indicated by (+); settings: rat liver; cited from earlier work
deoxythymidine kinase = test system: deoxythymidine kinase; parameters: key: inhibitory or negative effectors are indicated by (-); stimulatory or positive effectors are indicated by (+); settings: E. coli; cited from earlier work
[12] = test system: deoxycytidylate aminohydrolase; parameters: key: inhibitory or negative effectors are indicated by (-); stimulatory or positive effectors are indicated by (+); settings: ass spleen; cited from earlier work
[13] = test system: L-glutamine-D-fructose-6-phosphate transaminase; parameters: key: inhibitory or negative effectors are indicated by (-); stimulatory or positive effectors are indicated by (+); settings: rat liver; cited from earlier work

Compound: Clc1nc(Cl)c2[nH]c(Cl)nc2n1 [2,6,8-trichloropurine, 2,6,8-Trichloropurine]
Ki (uricase): ~1000 nM

Compound: Nc1ncnc2c1ncn2[C@@H]1O[C@H](COP(=O)(O)O)[C@@H](O)[C@H]1O [5'-AMP]
allosteric effector: inhibitory (-) or stimulatory (+) [1]: +
allosteric effector: inhibitory (-) or stimulatory (+) [2]: -
allosteric effector: inhibitory (-) or stimulatory (+) (phosphorylase b): +

Compound: Nc1ncnc2c1ncn2[C@@H]1O[C@H](COP(=O)(O)OP(=O)(O)O)[C@@H](O)[C@H]1O [ADP, addenosine diphosphate]
allosteric effector: inhibitory (-) or stimulatory (+) (L-threonine deaminase): +
allosteric effector: inhibitory (-) or stimulatory (+) (glutamate dehydrogenase): +

Compound: Nc1ncnc2c1ncn2[C@@H]1O[C@H](COP(=O)(O)OP(=O)(O)OP(=O)(O)O)[C@@H](O)[C@H]1O [ATP, adenosine triphosphate]
allosteric effector: inhibitory (-) or stimulatory (+) [3]: +
allosteric effector: inhibitory (-) or stimulatory (+) (phosphofructokinase): -
allosteric effector: inhibitory (-) or stimulatory (+) (glutamate dehydrogenase): -
allosteric effector: inhibitory (-) or stimulatory (+) (phosphorylase b): -

inhibition of carbonic anhydrase (in words) (carbonic anhydrase [5]; Table 1): inhibited the enzyme carbonic anhydrase
Hydrolysis Rate (carbonic anhydrase [5]; acetazolamide 0.144 μM with avidin 0.105 units/ml): 0.089 ΔOD348 /min/ml
Hydrolysis Rate (carbonic anhydrase [5]; acetazolamide 0.144 μM, no avidin): 0.088 ΔOD348 /min/ml
Hydrolysis Rate (carbonic anhydrase [5]; acetazolamide 0.288 μM, no avidin): 0.047 ΔOD348 /min/ml
Compound: CC(=O)Nc1nnc(S(N)(=O)=O)s1 [Acetazolamide, 2-Acetylamino-1,3,4-thiadiazole-5-sulfonamide]
effect on the carbonic anhydrase reaction (in words) (carbonic anhydrase [4]): inhibited the carbonic anhydrase reaction
Rate of Hydrolysis (carbonic anhydrase [4]; acetazolamide 0.216 μM with antibody to DNP 100 .infin.l/ml, mixture 3): 0.091 Increase in Absorbance per min at 348 nm
Rate of Hydrolysis (carbonic anhydrase [4]; acetazolamide 0.216 μM, no antibody, mixture 5): 0.088 Increase in Absorbance per min at 348 nm
effect of antibody to DNP on inhibition (in words) (carbonic anhydrase [4]): substantially unaffected by the presence of antibody to DNP

Compound: Nc1ccn([C@@H]2O[C@H](COP(=O)(O)OP(=O)(O)OP(=O)(O)O)[C@@H](O)[C@H]2O)c(=O)n1 [CTP, cytosine triphosphate]
allosteric effector: inhibitory (-) or stimulatory (+) [3]: -

Compound: NS(=O)(=O)c1nnc(NC(=O)CCCCCNc2ccc([N+](=O)[O-])cc2[N+](=O)[O-])s1 [DNP-Modulator Conjugate, 6-(2,4-Dinitroanilino)-N-(5-sulfonamide-1,3,4-thiadiazo-2-yl) caproamide]
Rate of Hydrolysis (carbonic anhydrase [4]; DNP-modulator conjugate 0.278 μM with antibody to DNP 100 .infin.l/ml, mixture 2): 0.108 Increase in Absorbance per min at 348 nm
Rate of Hydrolysis (carbonic anhydrase [4]; DNP-modulator conjugate 0.278 μM, N-DNP-6-aminocaproate 1.8 μM, antibody to DNP 100 .infin.l/ml, mixture 7): 0.098 Increase in Absorbance per min at 348 nm
Rate of Hydrolysis (carbonic anhydrase [4]; DNP-modulator conjugate 0.278 μM, no antibody, mixture 4): 0.074 Increase in Absorbance per min at 348 nm
effect on the carbonic anhydrase reaction (in words) (carbonic anhydrase [4]): inhibited the carbonic anhydrase reaction
effect of antibody to DNP on inhibition (in words) (carbonic anhydrase [4]): degree of inhibition being decreased by the presence of antibody to DNP

Compound: Nc1nc2c(ncn2[C@@H]2O[C@H](COP(=O)(O)OP(=O)(O)OP(=O)(O)O)[C@@H](O)[C@H]2O)c(=O)[nH]1 [GTP, guanosine triphosphate]
allosteric effector: inhibitory (-) or stimulatory (+) (glutamate dehydrogenase): -

Compound: CC[C@H](C)[C@H](N)C(=O)O [L-isoleucine]
allosteric effector: inhibitory (-) or stimulatory (+) [6]: -
allosteric effector: inhibitory (-) or stimulatory (+) (homoserine dehydrogenase [7]): +

Compound: NCCCC[C@H](N)C(=O)O [L-lysine]
allosteric effector: inhibitory (-) or stimulatory (+) (lysine aspartokinase): -

Compound: CSCC[C@H](N)C(=O)O [L-methionine]
allosteric effector: inhibitory (-) or stimulatory (+) (homoserine dehydrogenase [7]): +

Compound: C[C@@H](O)[C@H](N)C(=O)O [L-threonine]
allosteric effector: inhibitory (-) or stimulatory (+) (threonine aspartokinase): -
allosteric effector: inhibitory (-) or stimulatory (+) (homoserine dehydrogenase [7]): -
allosteric effector: inhibitory (-) or stimulatory (+) (homoserine dehydrogenase [8]): -

Compound: CC(C)[C@H](N)C(=O)O [L-valine]
allosteric effector: inhibitory (-) or stimulatory (+) (acetolactate synthetase): +
allosteric effector: inhibitory (-) or stimulatory (+) [6]: +

Compound: O=C(O)CCCCCNc1ccc([N+](=O)[O-])cc1[N+](=O)[O-] [N-DNP-6-aminocaproate]
Rate of Hydrolysis (carbonic anhydrase [4]; N-DNP-6-aminocaproate 1.8 μM alone, no antibody, mixture 6): 0.154 Increase in Absorbance per min at 348 nm
effect on the carbonic anhydrase reaction (in words) (carbonic anhydrase [4]): no substantial effect on the carbonic anhydrase reaction
effect of DNP derivative on inhibition by DNP-modulator conjugate (in words) (carbonic anhydrase [4]; mixtures 2 and 7, antibody to DNP present): increased inhibition of the carbonic anhydrase reaction by the DNP-modulator conjugate

Compound: CN(C(=O)Oc1cccc([N+](C)(C)C)c1)c1ccc(N)cc1 [N-methyl-N-(p-aminophenyl) carbamate ester of m-(trimethylamino) phenol]
inhibition of acetylcholinesterase (in words) (acetylcholinesterase): inhibited

Compound: O=C(O)CCCC[C@@H]1SC[C@@H]2NC(=O)N[C@@H]21 [biotin]
relation of rate of hydrolysis to biotin (in words) (carbonic anhydrase [9]; mixtures 8, 10 and 11): inversely related to the amount present

Compound: O=C(O)CC(O)(CC(=O)O)C(=O)O [citrate]
allosteric effector: inhibitory (-) or stimulatory (+) [10]: +

Compound: CC(=O)N[C@H]1[C@H]([C@H](O)[C@H](O)CO)OC(OP(=O)(O)OC[C@H]2O[C@@H](n3ccc(N)nc3=O)[C@H](O)[C@@H]2O)(C(=O)O)C[C@@H]1O (stereo partly shown) [cytosine monophosphate (CMP)-N-acetyl-neuraminic acid]
allosteric effector: inhibitory (-) or stimulatory (+) [11]: -

Compound: Nc1ccn([C@H]2C[C@H](O)[C@@H](COP(=O)(O)OP(=O)(O)O)O2)c(=O)n1 [dCDP, deoxycytosine diphosphate]
allosteric effector: inhibitory (-) or stimulatory (+) (deoxythymidine kinase): +

Compound: Nc1ccn([C@H]2C[C@H](O)[C@@H](COP(=O)(O)OP(=O)(O)OP(=O)(O)O)O2)c(=O)n1 [dCTP, deoxycytosine triphosphate]
allosteric effector: inhibitory (-) or stimulatory (+) [12]: +

Compound: Cc1cn([C@H]2C[C@H](O)[C@@H](COP(=O)(O)OP(=O)(O)OP(=O)(O)O)O2)c(=O)[nH]c1=O [dTTP, deoxythymidine triphosphate]
allosteric effector: inhibitory (-) or stimulatory (+) (deoxythymidine kinase): -
allosteric effector: inhibitory (-) or stimulatory (+) [12]: -

Compound: CC(C)C[C@H](N)C(=O)O [leucine]
allosteric effector: inhibitory (-) or stimulatory (+) (glutamate dehydrogenase): +

Compound: CSCC[C@H](N)C(=O)O [methionine]
allosteric effector: inhibitory (-) or stimulatory (+) (glutamate dehydrogenase): +

Compound: C[N+](C)(C)c1ccc(N)cc1 [p-aminophenyl trimethylammonium ion]
inhibition of acetylcholinesterase (in words) (acetylcholinesterase): inhibited

Compound: C[N+](C)(C)c1ccccc1 [phenyl trimethylammonium ion]
Ki (acetylcholinesterase; approximation, competitive inhibitor, read-out: inhibitor constant (Ki)): ~1000 nM

Compound: NC(=O)C1=CN([C@@H]2O[C@H](COP(=O)(O)OP(=O)(O)OC[C@H]3O[C@@H](n4cnc5c(N)ncnc54)[C@H](O)[C@@H]3O)[C@@H](O)[C@H]2O)C=CC1 [reduced NAD]
allosteric effector: inhibitory (-) or stimulatory (+) (glutamate dehydrogenase): -

Compound: N[C@@H](Cc1cc(I)c(Oc2cc(I)c(O)c(I)c2)c(I)c1)C(=O)O [thyroxine]
allosteric effector: inhibitory (-) or stimulatory (+) (glutamate dehydrogenase): -

Compound: CC(=O)N[C@H]1[C@@H](OP(=O)(O)OP(=O)(O)OC[C@H]2O[C@@H](n3ccc(=O)[nH]c3=O)[C@H](O)[C@@H]2O)O[C@H](CO)[C@@H](O)[C@@H]1O [uridine diphosphate (UDP)-N-acetyl-glucosamine]
allosteric effector: inhibitory (-) or stimulatory (+) [13]: -

effect of avidin on inhibition by acetazolamide (in words) (carbonic anhydrase [5]; Table 1): no significant effect on such inhibition
Hydrolysis Rate (carbonic anhydrase [5]; avidin 0.105 units/ml, acetazolamide 0.000 μM): 0.106 ΔOD348 /min/ml
Compound: Avidin: Lyophilized avidin (Sigma Chemical Co., St. Louis, Mo.)
relation of rate of enzymatic hydrolysis to avidin (in words) (carbonic anhydrase [9]; constant level of biotin-modulator conjugate, mixtures 2-9): directly related to the amount of avidin present
